{
  "source": "patent US8299178B2",
  "about": "“Stable micelles formed with diblock copolymers of critical micelle concentration copolymer and temperature-sensitive copolymer” (National Tsing Hua University, priority 2009, dated 2012)",
  "key": {"[1]": {"conditions": "literature value; cited from earlier work"}, "[2]": {"test_system": "HeLa cells", "experiment": "Internalization of Dox in HeLa cells by confocal laser scanning microscopy", "assay_type": "cell-based, human", "conditions": "Dox ca. 10 μg/mL, one hour of incubation", "protocol": "Dox accumulated in HeLa cells was localized using a Carl Zeiss LSM5 PASCAL confocal laser scanning microscopy (CLSM). The HeLa cells were seeded 1×10^5 per well on cover-slides for 24 h and were then treated with free Dox or Dox-mixed micelles. The concentration of Dox was ca. 10 μg/mL. Dox-mixed micelles were washed with PBS to remove untrapped Dox twice before use. After some time, the cells were washed twice with PBS, and then mounted on a slide with 4 wt % paraformaldehyde for CLSM observation. Fluorescence was observed by confocal microscope at 488 nm for excitation and an LP filter of 590 nm for Dox detection.\nThe time-dependent fluorescence intensity of Dox after Dox-mixed micelles incubated with human cervical epithelioid carcinoma (HeLa) cells was measured with free Dox (Dox-HCl) being used for comparison. […] Subsequently, the acidic endosomal compartment (ca. pH 5.5-5.0) induced Dox release due to mixed micelle dissociation by VIm protonation."}, "[3]": {"test_system": "HeLa cells", "experiment": "MTT cytotoxicity test using HeLa cells", "assay_type": "cell-based, human", "protocol": "The Dox activities of free Dox and Dox-mixed micelles were determined by performing cytotoxicity tests using HeLa cells (5×10^3 cell/mL). Cells that survived after incubation were estimated by a tetrazolium dye (MTT) assay. Dox-mPEG-b-P(NnPAAm-co-VIm) micelle was used for comparison. […] The IC50 of free Dox and Dox-loaded micelles are summary in Table 3.\nIntroducing mPEG-b-PLA into the micelle structure not only decreases mPEG-b-P(NIPAAm-co-VIm) quantity, decreases material cytotoxicity with a positive charge (i.e. VIm), but also stabilizes the micellar structure for biomedical use."}},
  "data": [
    {"smiles": "COc1cccc2c1C(=O)c1c(O)c3c(c(O)c1C2=O)C[C@@](O)(C(=O)CO)C[C@@H]3O[C@H]1C[C@H](N)[C@H](O)[C@H](C)O1", "note": "[Free Dox, doxorubicin]", "values": [
      {"measurement": "pKa", "setting": "[1]", "result": "~7"},
      {"measurement": "localization of Dox in cells", "setting": "[2]", "result": "accumulated in both the nucleus and the cytoplasm"},
      {"measurement": "Dox activity compared with the Dox-loaded micelles", "setting": "[3]", "result": "more potent activity"}
    ]}
  ]
}
